Where “and” joins values, the source holds several entries; their conditions need not be identical. Equal entries are not always repeated.
How the values were obtained:
Type in all cases: cell-based
Parameters in all cases: GPCRome screening signal at PTGIR / GPCRome screening signal at PTH1R / GPCRome screening signal at PTH2R / GPCRome screening signal at QRFP / GPCRome screening signal at RXFP2 / GPCRome screening signal at RXFP3 / GPCRome screening signal at RXFP4 / GPCRome screening signal at S1PR2 / GPCRome screening signal at S1PR3 / GPCRome screening signal at S1PR4 / GPCRome screening signal at S1PR5 / GPCRome screening signal at SCTR / GPCRome screening signal at SSTR2 / GPCRome screening signal at SSSTR / GPCRome screening signal at SSTR4 / GPCRome screening signal at SSTR5 / GPCRome screening signal at SUCNR1 / GPCRome screening signal at TA1 / GPCRome screening signal at TAAR2 / GPCRome screening signal at TAAR5 / GPCRome screening signal at TAAR6 / GPCRome screening signal at TAAR8 / GPCRome screening signal at TACR1 / GPCRome screening signal at TACR2 / GPCRome screening signal at TACR3 / GPCRome screening signal at TBXA2R / GPCRome screening signal at TSHR / GPCRome screening signal at UTS2R / GPCRome screening signal at VIPR2 / GPCRome screening signal at GPR68 no V2 Tail / GPCRome screening signal at GRM2 / GPCRome screening signal at GRM3: reference not given here
320 non-olfactory GPCRs [1] = biological target: T1, 320 non-olfactory GPCRs (Homo sapiens, UniProt P29371); details: receptor TACR3
T1 construct: expressed in transfected cells; host or cells: HTLA cells
T1 sequence (P29371 whole entry): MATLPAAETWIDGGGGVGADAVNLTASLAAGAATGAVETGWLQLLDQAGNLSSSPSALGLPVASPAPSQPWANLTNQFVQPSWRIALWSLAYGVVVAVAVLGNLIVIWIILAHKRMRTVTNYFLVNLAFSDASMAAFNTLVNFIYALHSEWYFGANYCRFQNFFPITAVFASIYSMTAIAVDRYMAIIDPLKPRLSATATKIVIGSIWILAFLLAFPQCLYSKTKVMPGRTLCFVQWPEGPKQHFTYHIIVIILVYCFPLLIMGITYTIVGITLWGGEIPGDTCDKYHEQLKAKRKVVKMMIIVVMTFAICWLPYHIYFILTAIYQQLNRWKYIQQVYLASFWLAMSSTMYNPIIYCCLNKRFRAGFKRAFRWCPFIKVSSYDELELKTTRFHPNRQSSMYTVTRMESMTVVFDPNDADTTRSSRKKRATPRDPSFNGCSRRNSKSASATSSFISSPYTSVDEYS

320 non-olfactory GPCRs [2] = biological target: T2, 320 non-olfactory GPCRs (Homo sapiens, UniProt P43119); details: receptor PTGIR
T2 construct: expressed in transfected cells; host or cells: HTLA cells
T2 sequence (P43119 whole entry): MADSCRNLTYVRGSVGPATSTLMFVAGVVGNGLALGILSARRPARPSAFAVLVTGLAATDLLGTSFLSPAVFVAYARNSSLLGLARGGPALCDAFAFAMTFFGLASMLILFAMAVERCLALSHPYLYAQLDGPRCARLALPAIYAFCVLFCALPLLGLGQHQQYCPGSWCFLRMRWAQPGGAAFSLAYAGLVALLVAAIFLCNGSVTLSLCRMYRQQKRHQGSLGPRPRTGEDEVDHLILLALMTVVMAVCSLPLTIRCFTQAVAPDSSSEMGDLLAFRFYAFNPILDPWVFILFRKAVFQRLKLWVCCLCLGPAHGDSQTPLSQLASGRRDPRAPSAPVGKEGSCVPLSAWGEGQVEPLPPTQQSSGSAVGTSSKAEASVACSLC

320 non-olfactory GPCRs [3] = biological target: T3, 320 non-olfactory GPCRs (Homo sapiens, UniProt P49190); details: receptor PTH2R
T3 construct: expressed in transfected cells; host or cells: HTLA cells
T3 sequence (P49190 25-550): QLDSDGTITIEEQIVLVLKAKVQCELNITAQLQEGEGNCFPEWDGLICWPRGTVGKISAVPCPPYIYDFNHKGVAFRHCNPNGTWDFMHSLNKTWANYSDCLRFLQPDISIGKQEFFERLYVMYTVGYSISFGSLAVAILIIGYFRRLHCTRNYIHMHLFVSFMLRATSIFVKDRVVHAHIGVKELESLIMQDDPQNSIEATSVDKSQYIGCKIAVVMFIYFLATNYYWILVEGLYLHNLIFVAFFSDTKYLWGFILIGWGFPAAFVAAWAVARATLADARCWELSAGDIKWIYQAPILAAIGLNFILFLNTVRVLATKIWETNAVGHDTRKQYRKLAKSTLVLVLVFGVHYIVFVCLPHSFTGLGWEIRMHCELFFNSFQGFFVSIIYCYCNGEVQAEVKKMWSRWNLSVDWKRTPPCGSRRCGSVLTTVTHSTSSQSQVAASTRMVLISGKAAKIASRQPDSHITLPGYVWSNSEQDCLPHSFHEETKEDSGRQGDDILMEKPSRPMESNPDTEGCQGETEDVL

320 non-olfactory GPCRs [4] = biological target: 320 non-olfactory GPCRs (Homo sapiens, UniProt Q99500); details: receptor S1PR3
Chain of 320 non-olfactory GPCRs (Homo sapiens, UniProt Q99500) (Q99500 whole entry): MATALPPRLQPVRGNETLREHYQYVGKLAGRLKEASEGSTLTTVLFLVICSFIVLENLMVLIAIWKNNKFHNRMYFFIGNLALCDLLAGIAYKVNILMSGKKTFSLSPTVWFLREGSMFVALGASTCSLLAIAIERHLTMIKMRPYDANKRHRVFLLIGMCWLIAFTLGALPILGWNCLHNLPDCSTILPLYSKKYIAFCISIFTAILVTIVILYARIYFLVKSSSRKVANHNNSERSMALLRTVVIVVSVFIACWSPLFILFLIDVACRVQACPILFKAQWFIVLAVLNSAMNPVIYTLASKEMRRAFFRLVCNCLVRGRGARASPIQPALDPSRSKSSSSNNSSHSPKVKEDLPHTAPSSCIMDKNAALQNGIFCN

[5] = Fig_5f, single replicate values
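For GPCRome agonism screen response in this document: fold over basal response of each receptor without drug.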

SMILES	GPCRome screening signal at TACR3 (320 non-olfactory GPCRs [1]; [5])	GPCRome screening signal at PTGIR (320 non-olfactory GPCRs [2]; [5])	GPCRome screening signal at PTH2R (320 non-olfactory GPCRs [3]; [5])	GPCRome screening signal at S1PR3 (320 non-olfactory GPCRs [4]; [5])	GPCRome agonism screen response (320 non-olfactory GPCRs [1]; replicate values, Fig_4g)	GPCRome agonism screen response (320 non-olfactory GPCRs [2]; replicate values, Fig_4g)	GPCRome agonism screen response (320 non-olfactory GPCRs [3]; replicate values, Fig_4g)	GPCRome agonism screen response (320 non-olfactory GPCRs [4]; replicate values, Fig_4g)
CCOc1ccccc1CCC(C)NCC1(O)CCCCC1.Cl (racemic) [Fig_5f]	1.15 and 1.023 and 1.051 and 0.8328	0.4707 and 0.7235 and 1.819 and 1.564	0.8447 and 0.9374 and 0.7725 and 1.472	1.578 and 1.076 and 2.206 and 1.217	–	–	–	–
CCOc1cccc2cc(C(C)NCC3(O)CCCCC3)oc12 (centres unmarked) [O4LE6]	–	–	–	–	1.119 and 1.001 and 1.104 and 0.992	1.654 and 0.8806 and 0.8629 and 1.301	1.171 and 0.1179 and 1.638 and 1.06	2.336 and 1.6343 and 1.172 and 1.379

From article PMC7044277 (Nature Communications, 2020)
